Data as given in ChEMBL document CHEMBL5252673, “Development of thiazole-appended novel hydrazones as a new class of α-amylase inhibitors with anticancer assets: an in silico and in vitro approach” (RSC Med Chem, 2023).
The source made the active and inactive calls. No cut-off for these calls is given here.

Experiments:
[1] = molecular target: Alpha amylase (Homo sapiens) (UniProt P0DUB6); test: Binding affinity to alpha-amylase (unknown origin) assessed as increase in absorption intensity by measuring appearance of new peak at 380 nm at 0.001 M by […]
[2] = test system: A549; test: Induction of ROS in human A549 cells at sub IC50 concentration incubated for 24 hrs by H2DCFDA dye based fluorescence assay (reference value: 33.28%); type: functional
[3] = molecular target: T1, Alpha amylase (Homo sapiens, UniProt P0DUB6); test: Inhibition of alpha-amylase (unknown origin) using starch as substrate preincubated with substrate for 15 mins followed by compound addition and measured after 15 mins by UV-VIS spectrophotometric analysis
T1 sequence (P0DUB6 whole entry): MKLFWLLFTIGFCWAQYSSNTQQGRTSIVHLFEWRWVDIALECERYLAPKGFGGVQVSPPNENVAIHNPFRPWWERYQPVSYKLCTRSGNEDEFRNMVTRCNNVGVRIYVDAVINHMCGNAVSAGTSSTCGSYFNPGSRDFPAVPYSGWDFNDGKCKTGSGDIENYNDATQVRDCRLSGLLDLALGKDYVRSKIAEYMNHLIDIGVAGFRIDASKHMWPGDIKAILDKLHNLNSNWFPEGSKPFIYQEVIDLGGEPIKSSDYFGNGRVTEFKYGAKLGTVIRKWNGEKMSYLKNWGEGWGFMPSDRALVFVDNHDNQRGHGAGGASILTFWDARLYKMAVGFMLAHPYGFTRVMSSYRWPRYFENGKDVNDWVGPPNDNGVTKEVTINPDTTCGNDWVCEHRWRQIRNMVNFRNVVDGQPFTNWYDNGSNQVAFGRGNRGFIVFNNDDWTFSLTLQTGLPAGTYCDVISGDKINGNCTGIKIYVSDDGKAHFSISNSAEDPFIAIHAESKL

[4] = test system: A549; test: Antiproliferative activity against human A549 cells assessed as inhibition of cell growth incubated for 48 hrs by MTT assay; type: functional, cell-based; conditions: A549, 48 h
[5] = test system: HCT-116; test: Antiproliferative activity against human HCT-116 cells assessed as inhibition of cell growth incubated for 48 hrs by MTT assay; type: functional, cell-based; conditions: HCT-116, 48 h
[6] = test system: MDA-MB-231; test: Antiproliferative activity against human MDA-MB-231 cells assessed as inhibition of cell growth incubated for 48 hrs by MTT assay; type: functional, cell-based; conditions: MDA-MB-231, 48 h
[7] = test system: MCF-10A; test: Cytotoxicity against human MCF-10A assessed as reduction in cell viability upto 10 uM incubated for 48 hrs by MTT assay; type: toxicity, cell-based
[8] = molecular target: Alpha amylase (Homo sapiens) (UniProt P0DUB6); test: Binding affinity to alpha-amylase (unknown origin) assessed as increase in intensity of absorption peak at 280 nm by […]
[9] = molecular target: Alpha amylase (Homo sapiens) (UniProt P0DUB6); test: Binding affinity to alpha-amylase (unknown origin) assessed as increase in intensity of absorption peak at 285 nm by […]
[10] = molecular target: Alpha amylase (Homo sapiens) (UniProt P0DUB6); test: Binding affinity to alpha-amylase (unknown origin) assessed as quenching constant at a temperature of 278.15 K by fluorescence quenching analysis
[11] = molecular target: Alpha amylase (Homo sapiens) (UniProt P0DUB6); test: Binding affinity to alpha-amylase (unknown origin) assessed as quenching constant at a temperature of 283.15 K by fluorescence quenching analysis
[12] = molecular target: Alpha amylase (Homo sapiens) (UniProt P0DUB6); test: Binding affinity to alpha-amylase (unknown origin) assessed as quenching constant at a temperature of 288.15 K by fluorescence quenching analysis
[13] = molecular target: Alpha amylase (Homo sapiens) (UniProt P0DUB6); test: Binding affinity to alpha-amylase (unknown origin) assessed as quenching constant at a temperature of 310.15 K by fluorescence quenching analysis
[14] = molecular target: Alpha amylase (Homo sapiens) (UniProt P0DUB6); test: Binding affinity to alpha-amylase (unknown origin) assessed as Stem-Volmer quenching constant at a temperature of 278.15 K by fluorescence quenching analysis
[15] = molecular target: Alpha amylase (Homo sapiens) (UniProt P0DUB6); test: Binding affinity to alpha-amylase (unknown origin) assessed as Stem-Volmer quenching constant at a temperature of 283.15 K by fluorescence quenching analysis
[16] = molecular target: Alpha amylase (Homo sapiens) (UniProt P0DUB6); test: Binding affinity to alpha-amylase (unknown origin) assessed as Stem-Volmer quenching constant at a temperature of 288.15 K by fluorescence quenching analysis
[17] = molecular target: Alpha amylase (Homo sapiens) (UniProt P0DUB6); test: Binding affinity to alpha-amylase (unknown origin) assessed as Stem-Volmer quenching constant at a temperature of 310.15 K by fluorescence quenching analysis
[18] = molecular target: Alpha amylase (Homo sapiens) (UniProt P0DUB6); test: Binding affinity to alpha-amylase (unknown origin) assessed as equilibrium binding constant at a temperature of 278.15 K by fluorescence quenching analysis
[19] = molecular target: Alpha amylase (Homo sapiens) (UniProt P0DUB6); test: Binding affinity to alpha-amylase (unknown origin) assessed as equilibrium binding constant at a temperature of 283.15 K by fluorescence quenching analysis
[20] = molecular target: Alpha amylase (Homo sapiens) (UniProt P0DUB6); test: Binding affinity to alpha-amylase (unknown origin) assessed as equilibrium binding constant at a temperature of 288.15 K by fluorescence quenching analysis
[21] = molecular target: Alpha amylase (Homo sapiens) (UniProt P0DUB6); test: Binding affinity to alpha-amylase (unknown origin) assessed as equilibrium binding constant at a temperature of 310.15 K by fluorescence quenching analysis
[22] = molecular target: Alpha amylase (Homo sapiens) (UniProt P0DUB6); test: Binding affinity to alpha-amylase (unknown origin) assessed as gibb's free energy change ar a temperature of 278.15 K by fluorescence quenching analysis
[23] = molecular target: Alpha amylase (Homo sapiens) (UniProt P0DUB6); test: Binding affinity to alpha-amylase (unknown origin) assessed as gibb's free energy change ar a temperature of 283.15 K by fluorescence quenching analysis
[24] = molecular target: Alpha amylase (Homo sapiens) (UniProt P0DUB6); test: Binding affinity to alpha-amylase (unknown origin) assessed as gibb's free energy change ar a temperature of 288.15 K by fluorescence quenching analysis
[25] = molecular target: Alpha amylase (Homo sapiens) (UniProt P0DUB6); test: Binding affinity to alpha-amylase (unknown origin) assessed as gibb's free energy change ar a temperature of 310.15 K by fluorescence quenching analysis
[26] = molecular target: Alpha amylase (Homo sapiens) (UniProt P0DUB6); test: Binding affinity to alpha-amylase (unknown origin) assessed as change in enthalpy by fluorescence quenching analysis
[27] = molecular target: Alpha amylase (Homo sapiens) (UniProt P0DUB6); test: Binding affinity to alpha-amylase (unknown origin) assessed as change in entropy by fluorescence quenching analysis
[28] = molecular target: Alpha amylase (Homo sapiens) (UniProt P0DUB6); test: Binding affinity to alpha-amylase (unknown origin) assessed as decrease in fluorescence intensity of tyrosine residue by Synchronous fluorescence analysis
[29] = molecular target: Alpha amylase (Homo sapiens) (UniProt P0DUB6); test: Binding affinity to alpha-amylase (unknown origin) assessed as assessed as non-uniform change in fluorescence intensity of tryptophan residue by Synchronous fluorescence analysis
[30] = molecular target: T2, Pancreatic alpha-amylase (Sus scrofa, UniProt P00690); test: Inhibition of porcine pancreatic alpha-amylase using starch as substrate incubated for 10 mins by absorbance based assay
T2 sequence (P00690 whole entry): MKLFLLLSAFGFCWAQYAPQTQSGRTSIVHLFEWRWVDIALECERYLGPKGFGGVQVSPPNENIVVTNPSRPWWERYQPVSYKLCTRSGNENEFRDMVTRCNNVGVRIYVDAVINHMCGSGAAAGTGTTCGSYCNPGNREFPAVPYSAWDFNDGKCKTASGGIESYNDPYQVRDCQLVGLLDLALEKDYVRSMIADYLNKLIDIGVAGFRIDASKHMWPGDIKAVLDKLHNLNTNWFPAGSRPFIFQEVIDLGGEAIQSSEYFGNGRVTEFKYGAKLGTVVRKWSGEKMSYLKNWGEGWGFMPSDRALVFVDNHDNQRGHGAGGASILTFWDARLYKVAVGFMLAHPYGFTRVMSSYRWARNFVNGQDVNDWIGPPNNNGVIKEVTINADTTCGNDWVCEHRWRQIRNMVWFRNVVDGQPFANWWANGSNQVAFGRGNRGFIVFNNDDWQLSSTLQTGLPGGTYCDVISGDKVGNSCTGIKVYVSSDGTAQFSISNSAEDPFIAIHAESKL

## O=C(N/N=C/c1ccc(O)cc1)c1csc(Nc2ccc([N+](=O)[O-])cc2)n1
[1]
  Activity: Active
[2]
  Activity: 64.21%
[3]
  IC50: 0.23 µM
[4]
  IC50: 7.44 µM
[5]
  IC50: 8.33 µM
[6]
  IC50: 11.4 µM
[7]
  Activity: Non-Toxic
[8]
  Activity: Dose-Dependent Effect
[9]
  Activity: Dose-Dependent Effect
[10]
  Kq: 16.8 10^13L/mol/s
[11]
  Kq: 9.36 10^13L/mol/s
[12]
  Kq: 2.46 10^13L/mol/s
[13]
  Kq: 1.88 10^13L/mol/s
[14]
  KSV: 1.6 10^5L/mol/s
[15]
  KSV: 0.93 10^5L/mol/s
[16]
  KSV: 0.24 10^5L/mol/s
[17]
  KSV: 0.188 10^5L/mol/s
[18]
  Kb: 6.32 10^6L/mol
[19]
  Kb: 0.102 10^6L/mol
[20]
  Kb: 0.00254 10^6L/mol
[21]
  Kb: 442000 L/mol
[22]
  deltaG: -7.71 kcal/mol
[23]
  deltaG: -6.7 kcal/mol
[24]
  deltaG: -5.69 kcal/mol
[25]
  deltaG: -0.507 kcal/mol
[26]
  deltaH: -6.4 kcal/mol
[27]
  deltaS: -847 J/mol/K
[28]
  Activity: Active
[29]
  Activity: Active

## COc1ccc(CNC(=O)Nc2sc3c(c2C#N)CCCC3)c(OC)c1
[30]
  IC50: 0.59 µM
